The record followed here is patent US20130289108A1, “Palladium-Copper Catalysts for the Homogeneous Selective Oxidation of Thiol Groups” (priority 2011, published 2013).

The structures appear in SMILES notation. Marks after values point to notes of the source that are not given here.

The assay concerns male rats with cytopenia. Put plainly: Hemostimulating activity: general analysis of the blood of male rats with cyclophosphan cytopenia. In kind it is in vivo.
[1] abbreviates: 3 days after cyclophosphan 120 mg/kg.
[2] abbreviates: 7 days after cyclophosphan 120 mg/kg.
The mark [3] stands for this setting: 14 days after cyclophosphan 120 mg/kg.

In the case of `O=C([O-])[O-].[Li+].[Li+]` [preparation 3, lithium carbonate], under setting [1], the Erythrocytes was 3.4 ± 0.29 10^12/l, the Leucocytes is on record as 3.22 ± 0.11* 10^9/l, the Lymphocytes is on record as 49.7 ± 1.6 % and the Reticulocytes is listed as 1.1 ± 0.1%. The compound also registered a Segmented neutrophils under setting [1] of 31 ± 1.7 %. Moreover, under setting [2], the Erythrocytes was 3.4 ± 0.29 10^12/l, the Leucocytes is 3.22 ± 0.11* 10^9/l, the Lymphocytes worked out at 49.7 ± 1.6 % and the Reticulocytes amounted to 1.1 ± 0.1%. Under setting [2], this compound yielded a Segmented neutrophils of 31 ± 1.7 %. Under setting [3], the Erythrocytes was 4.7 ± 0.27 10^12/l, the Leucocytes was 5.2 ± 0.26** 10^9/l, the Lymphocytes was determined as 70.3 ± 0.9% and the Reticulocytes was 1.3 ± 0.3%. Under setting [3], this compound displayed a Segmented neutrophils of 15.0 ± 2.6 %.
For `CC(=O)N[C@@H](CSSC[C@H](NC(C)=O)C(=O)O)C(=O)O` [preparation 4, N-acetyl-L-cysteine disulfide], under setting [1], the Erythrocytes was 3.2 ± 0.33 10^12/l, the Leucocytes is 3.47 ± 0.08* 10^9/l, the Lymphocytes came out at 52.5 ± 1.3 % and the Segmented neutrophils turned out to be 31 ± 1.8 %. Under setting [2], the Erythrocytes is listed as 3.2 ± 0.33 10^12/l, the Leucocytes is listed as 3.47 ± 0.08* 10^9/l, the Lymphocytes worked out at 52.5 ± 1.3 % and the Segmented neutrophils was determined as 31 ± 1.8 %. Also, under setting [3], the Erythrocytes is reported as 4.1 ± 0.21 10^12/l, the Leucocytes is listed as 5.1 ± 0.22** 10^9/l, the Lymphocytes is reported as 71.0 ± 1.6% and the Reticulocytes is 1.2 ± 0.4%. Under setting [3], the Segmented neutrophils worked out at 13.6 ± 1.9 %.
